Results reported in PMC5218480 (PLoS ONE, 2017).

Tested on: MV-4-11 cells
Assay: Gene expression microarray analysis (Affymetrix PrimeView) and GSEA
Type: cell-based, human
Design: RFU PODN (11730768_x_at) / Fold change /veh PODN (11730768_x_at) / RFU LINC00158 (11744669_a_at) / Fold change /veh LINC00158 (11744669_a_at) / RFU DUSP10 (11751237_a_at) / Fold change /veh DUSP10 (11751237_a_at) / RFU ID3 (11757404_x_at) / Fold change /veh ID3 (11757404_x_at) / RFU PLEKHG5 (11737974_s_at) / Fold change /veh PLEKHG5 (11737974_s_at) / RFU LRRC4B (11730491_at) / Fold change /veh LRRC4B (11730491_at) / RFU GIMAP4 (11747438_a_at) / Fold change /veh GIMAP4 (11747438_a_at) / RFU KRT8 (11758183_x_at) / Fold change /veh KRT8 (11758183_x_at) / RFU CNN1 (11734310_a_at) / Fold change /veh CNN1 (11734310_a_at) / RFU VPS37D (11726825_at) / Fold change /veh VPS37D (11726825_at) / RFU C10orf10 (11716522_x_at) / Fold change /veh C10orf10 (11716522_x_at) / RFU KIR2DL2 /// KIR2DL4 /// KIR2DL5A /// KIR2DL5B /// KIR2DS1 /// KIR2DS2 /// KIR2DS3 /// KIR2DS4 /// KIR3DL3 /// KIR3DL3 /// KIR3DS1 (11738374_at) / Fold change /veh KIR2DL2 /// KIR2DL4 /// KIR2DL5A /// KIR2DL5B /// KIR2DS1 /// KIR2DS2 /// KIR2DS3 /// KIR2DS4 /// KIR3DL3 /// KIR3DL3 /// KIR3DS1 (11738374_at) / RFU C1QL1 (11718748_at) / Fold change /veh C1QL1 (11718748_at) / RFU TMPRSS4 (11747572_a_at) / Fold change /veh TMPRSS4 (11747572_a_at) / RFU HAMP (11756126_x_at) / Fold change /veh HAMP (11756126_x_at) / RFU RNFT2 (11725882_a_at) / Fold change /veh RNFT2 (11725882_a_at) / RFU NR4A2 (11747474_a_at) / Fold change /veh NR4A2 (11747474_a_at) / RFU ABCC12 (11746883_a_at) / Fold change /veh ABCC12 (11746883_a_at) / RFU TMEM136 (11760407_x_at) / Fold change /veh TMEM136 (11760407_x_at) / RFU CLDN22 /// WWC2 (11732394_at) / Fold change /veh CLDN22 /// WWC2 (11732394_at) / RFU HLA-DPB1 (11760878_x_at) / Fold change /veh HLA-DPB1 (11760878_x_at) / RFU SPINT1 (11716480_a_at) / Fold change /veh SPINT1 (11716480_a_at) / RFU GAP43 (11754022_s_at) / Fold change /veh GAP43 (11754022_s_at) / RFU A4GNT (11735810_at) / Fold change /veh A4GNT (11735810_at) / RFU PRB3 (11715151_x_at) / Fold change /veh PRB3 (11715151_x_at) / RFU TUBB4B (11761932_at) / Fold change /veh TUBB4B (11761932_at) / RFU CAPN14 (11732068_a_at) / Fold change /veh CAPN14 (11732068_a_at) / RFU TMCC2 (11721928_a_at) / Fold change /veh TMCC2 (11721928_a_at) / RFU IRGQ (11745062_a_at) / Fold change /veh IRGQ (11745062_a_at) / RFU FAM174B (11720279_a_at) / Fold change /veh FAM174B (11720279_a_at) / RFU TMPRSS4 (11748680_a_at) / Fold change /veh TMPRSS4 (11748680_a_at) / RFU FAM212B (11763350_a_at) / Fold change /veh FAM212B (11763350_a_at) / RFU PLEKHG5 (11743358_a_at) / Fold change /veh PLEKHG5 (11743358_a_at) / RFU ZSCAN30 (11745921_a_at) / Fold change /veh ZSCAN30 (11745921_a_at) / RFU CMKLR1 (11741424_a_at) / Fold change /veh CMKLR1 (11741424_a_at) / RFU LOC101060620 /// MAPK8IP1 (11723275_at) / Fold change /veh LOC101060620 /// MAPK8IP1 (11723275_at) / RFU SPTSSB (11747773_x_at) / Fold change /veh SPTSSB (11747773_x_at) / RFU PRSS12 (11739890_at) / Fold change /veh PRSS12 (11739890_at) / RFU BIN1 (11741810_x_at) / Fold change /veh BIN1 (11741810_x_at) / RFU WNT11 (11732464_a_at) / Fold change /veh WNT11 (11732464_a_at) / RFU C10orf10 (11716521_a_at) / Fold change /veh C10orf10 (11716521_a_at) / RFU C5orf56 (11738089_at) / Fold change /veh C5orf56 (11738089_at) / RFU CYB561 (11721691_x_at) / Fold change /veh CYB561 (11721691_x_at) / RFU ANKRD19P (11752326_a_at) / Fold change /veh ANKRD19P (11752326_a_at) / RFU OR2T12 /// OR2T33 /// OR2T8 (11738714_s_at) / Fold change /veh OR2T12 /// OR2T33 /// OR2T8 (11738714_s_at) / RFU VCAN (11748164_a_at) / Fold change /veh VCAN (11748164_a_at) / RFU JSRP1 (11732532_at) / Fold change /veh JSRP1 (11732532_at) / RFU KRTAP10-11 (11738290_x_at) / Fold change /veh KRTAP10-11 (11738290_x_at) / RFU MYO3A (11730013_a_at) / Fold change /veh MYO3A (11730013_a_at) / RFU EBF3 (11725865_a_at) / Fold change /veh EBF3 (11725865_a_at) / RFU CAMK2N1 (11719241_x_at) / Fold change /veh CAMK2N1 (11719241_x_at) / RFU C5orf56 (11738088_a_at) / Fold change /veh C5orf56 (11738088_a_at) / RFU OLFML3 (11715873_a_at) / Fold change /veh OLFML3 (11715873_a_at) / RFU LOC100653217 /// NTM (11731650_a_at) / Fold change /veh LOC100653217 /// NTM (11731650_a_at) / RFU MAPK11 (11762145_a_at) / Fold change /veh MAPK11 (11762145_a_at) / RFU FIZ1 (11724087_x_at) / Fold change /veh FIZ1 (11724087_x_at) / RFU OASL (11726364_x_at) / Fold change /veh OASL (11726364_x_at) / RFU SOX15 (11748057_x_at) / Fold change /veh SOX15 (11748057_x_at) / RFU CD79A (11719716_a_at) / Fold change /veh CD79A (11719716_a_at) / RFU HIST1H1D (11736915_at) / Fold change /veh HIST1H1D (11736915_at) / RFU CASKIN2 (11723855_a_at) / Fold change /veh CASKIN2 (11723855_a_at) / RFU LOC730098 (11760151_x_at) / Fold change /veh LOC730098 (11760151_x_at) / RFU OR4N2 (11742367_at) / Fold change /veh OR4N2 (11742367_at) / RFU PRRT2 (11749266_a_at) / Fold change /veh PRRT2 (11749266_a_at) / RFU SNX32 (11753110_a_at) / Fold change /veh SNX32 (11753110_a_at) / RFU CDHR5 (11726645_a_at) / Fold change /veh CDHR5 (11726645_a_at) / RFU RCAN1 (11760418_a_at) / Fold change /veh RCAN1 (11760418_a_at) / RFU FAM167A (11723789_a_at) / Fold change /veh FAM167A (11723789_a_at) / RFU FAM26E (11764081_at) / Fold change /veh FAM26E (11764081_at) / RFU ISYNA1 (11749810_s_at) / Fold change /veh ISYNA1 (11749810_s_at) / RFU ACY1 (11761880_at) / Fold change /veh ACY1 (11761880_at) / RFU 11764098_at / Fold change /veh 11764098_at / RFU SAMD14 (11745864_x_at) / Fold change /veh SAMD14 (11745864_x_at) / RFU NPB (11741838_a_at) / Fold change /veh NPB (11741838_a_at) / RFU TMPRSS6 (11731388_a_at) / Fold change /veh TMPRSS6 (11731388_a_at) / RFU KRTAP10-2 (11738614_at) / Fold change /veh KRTAP10-2 (11738614_at) / RFU ARHGAP8 /// PRR5-ARHGAP8 (11727945_x_at) / Fold change /veh ARHGAP8 /// PRR5-ARHGAP8 (11727945_x_at) / RFU KRTAP5-7 /// NADSYN1 (11734609_at) / Fold change /veh KRTAP5-7 /// NADSYN1 (11734609_at) / RFU RASL12 (11751679_a_at) / Fold change /veh RASL12 (11751679_a_at) / RFU CDKN2B (11736163_a_at) / Fold change /veh CDKN2B (11736163_a_at) / RFU PRF1 (11729649_at) / Fold change /veh PRF1 (11729649_at) / RFU, ZNF638 /// ZNF638-IT1 / Fold change vs veh, ZNF638 /// ZNF638-IT1 / RFU, PANK3 / Fold change vs veh, PANK3 / RFU, SH3YL1 / Fold change vs veh, SH3YL1 / RFU, ZEB2 / Fold change vs veh, ZEB2 / RFU, NRIP1 / Fold change vs veh, NRIP1 / RFU, PTTG1IP / Fold change vs veh, PTTG1IP / RFU, CAPN2 / Fold change vs veh, CAPN2 / RFU, MED14 / Fold change vs veh, MED14 / RFU, SNORA58 / Fold change vs veh, SNORA58 / RFU, C1orf63 / Fold change vs veh, C1orf63 / RFU, LRRFIP1 / Fold change vs veh, LRRFIP1 / RFU, NDUFAF7 / Fold change vs veh, NDUFAF7 / RFU, SLC12A2 / Fold change vs veh, SLC12A2 / RFU, IBTK / Fold change vs veh, IBTK / RFU, ESF1 / Fold change vs veh, ESF1 / Fold change vs veh, TMEM50B / RFU, TAOK1 / Fold change vs veh, TAOK1 / RFU, ACBD3 / Fold change vs veh, ACBD3 / RFU, TMA16 / Fold change vs veh, TMA16 / RFU, RWDD3 / Fold change vs veh, RWDD3 / RFU, BCAT1 / Fold change vs veh, BCAT1 / RFU, EDEM3 / Fold change vs veh, EDEM3 / RFU, TMEM33 / Fold change vs veh, TMEM33 / RFU, WDR75 / Fold change vs veh, WDR75 / RFU, AHCTF1 / Fold change vs veh, AHCTF1 / RFU, TFRC / Fold change vs veh, TFRC / RFU, ZDHHC17 / Fold change vs veh, ZDHHC17 / RFU, NOM1 / Fold change vs veh, NOM1 / RFU, ARL8B / Fold change vs veh, ARL8B / RFU, ZBTB11 / Fold change vs veh, ZBTB11 / RFU, TAMM41 / Fold change vs veh, TAMM41 / RFU, KIAA1704 /// LOC100996395 / Fold change vs veh, KIAA1704 /// LOC100996395 / RFU, ING1 / Fold change vs veh, ING1 / RFU, TRMT61B / Fold change vs veh, TRMT61B / RFU, FUBP3 / Fold change vs veh, FUBP3 / RFU, TP53 / Fold change vs veh, TP53 / RFU, TNKS2 / Fold change vs veh, TNKS2 / RFU, ZFP14 / Fold change vs veh, ZFP14 / RFU, ACTR2 / Fold change vs veh, ACTR2 / RFU, PPP3R1 / Fold change vs veh, PPP3R1 / RFU, PIK3R1 / Fold change vs veh, PIK3R1 / RFU, HNRNPA1 / Fold change vs veh, HNRNPA1 / RFU, RNF170 / Fold change vs veh, RNF170 / RFU, ZNF28 / Fold change vs veh, ZNF28 / RFU, RNGTT / Fold change vs veh, RNGTT / RFU, OGT / Fold change vs veh, OGT / RFU, BRD1 / Fold change vs veh, BRD1 / RFU, MARS / Fold change vs veh, MARS / RFU, ZNF655 / Fold change vs veh, ZNF655 / RFU, FAHD1 / Fold change vs veh, FAHD1 / RFU, BDP1 / Fold change vs veh, BDP1 / RFU, LRRCC1 / Fold change vs veh, LRRCC1 / RFU, ARID1A / Fold change vs veh, ARID1A / RFU, ZNF146 / Fold change vs veh, ZNF146 / RFU, ZNF330 / Fold change vs veh, ZNF330 / RFU, GPN3 / Fold change vs veh, GPN3 / RFU, C9orf123 / Fold change vs veh, C9orf123 / RFU, N4BP2L2 / Fold change vs veh, N4BP2L2 / RFU, ARFIP1 / Fold change vs veh, ARFIP1 / RFU, FAM179B / Fold change vs veh, FAM179B / RFU, BCL10 / Fold change vs veh, BCL10 / RFU, UHRF1BP1L / Fold change vs veh, UHRF1BP1L / RFU, BET1 / Fold change vs veh, BET1 / RFU, CNOT2 / Fold change vs veh, CNOT2 / RFU, ZNF268 / Fold change vs veh, ZNF268 / Fold change vs veh, ZNF507 / RFU, DGCR2 / Fold change vs veh, DGCR2 / RFU, WDSUB1 / Fold change vs veh, WDSUB1 / Fold change vs veh, HSP90B1 /// MIR3652 / RFU, ADSS / Fold change vs veh, ADSS / RFU, GK / Fold change vs veh, GK / RFU, ZNF148 / Fold change vs veh, ZNF148 / RFU, TAF9 / Fold change vs veh, TAF9 / RFU, SLC1A5 / Fold change vs veh, SLC1A5 / RFU, SLMO2 / Fold change vs veh, SLMO2 / RFU, ABCC4 / Fold change vs veh, ABCC4 / RFU, LOC101060439 /// RAP1B / Fold change vs veh, LOC101060439 /// RAP1B / RFU, RFX7 / Fold change vs veh, RFX7 / RFU, GTPBP10 / Fold change vs veh, GTPBP10 / RFU, CNEP1R1 / Fold change vs veh, CNEP1R1 / RFU, BIVM-ERCC5 /// ERCC5 / Fold change vs veh, BIVM-ERCC5 /// ERCC5 / RFU, ILF3 / Fold change vs veh, ILF3 / RFU 11762660_at / Fold change /veh 11762660_at / RFU VCAN (11757783_s_at) / Fold change /veh VCAN (11757783_s_at) / RFU DDX43 (11728927_at) / Fold change /veh DDX43 (11728927_at) / RFU KRT8 (11758188_x_at) / Fold change /veh KRT8 (11758188_x_at) / RFU NKD1 (11759106_at) / Fold change /veh NKD1 (11759106_at) / RFU SRD5A1 (11742802_a_at) / Fold change /veh SRD5A1 (11742802_a_at) / RFU TPSAB1 /// TPSB2 (11721975_s_at) / Fold change /veh TPSAB1 /// TPSB2 (11721975_s_at) / RFU GSTM3 (11746129_a_at) / Fold change /veh GSTM3 (11746129_a_at) / RFU IL23R (11737362_x_at) / Fold change /veh IL23R (11737362_x_at) / RFU TMEM51 (11727254_a_at) / Fold change /veh TMEM51 (11727254_a_at) / RFU PIWIL2 (11732686_x_at) / Fold change /veh PIWIL2 (11732686_x_at) / RFU ORM1 (11744905_x_at) / Fold change /veh ORM1 (11744905_x_at) / RFU CCDC152 (11743942_at) / Fold change /veh CCDC152 (11743942_at) / RFU ECM1 (11717891_a_at) / Fold change /veh ECM1 (11717891_a_at) / RFU IL23R (11748794_a_at) / Fold change /veh IL23R (11748794_a_at) / RFU TNFAIP8L3 (11732012_x_at) / Fold change /veh TNFAIP8L3 (11732012_x_at) / RFU MBOAT4 (11741988_at) / Fold change /veh MBOAT4 (11741988_at) / RFU 11764193_at / Fold change /veh 11764193_at / RFU TMEM53 (11763286_at) / Fold change /veh TMEM53 (11763286_at) / RFU MAGEB2 (11727129_at) / Fold change /veh MAGEB2 (11727129_at) / RFU TMEM200A (11744735_a_at) / Fold change /veh TMEM200A (11744735_a_at) / RFU CCDC152 (11751479_a_at) / Fold change /veh CCDC152 (11751479_a_at) / RFU FAM211A (11726209_a_at) / Fold change /veh FAM211A (11726209_a_at) / RFU RGS16 (11746705_a_at) / Fold change /veh RGS16 (11746705_a_at) / RFU VCAN (11755009_s_at) / Fold change /veh VCAN (11755009_s_at) / RFU RHOB (11743442_s_at) / Fold change /veh RHOB (11743442_s_at) / RFU RGS16 (11720943_a_at) / Fold change /veh RGS16 (11720943_a_at) / RFU RGS16 (11720944_at) / Fold change /veh RGS16 (11720944_at) / RFU, VPS4B / Fold change vs veh, VPS4B / RFU, CREB1 / Fold change vs veh, CREB1 / RFU, DNAJC13 / Fold change vs veh, DNAJC13 / RFU, GNAQ / Fold change vs veh, GNAQ / RFU, CDK5R1 / Fold change vs veh, CDK5R1 / RFU, ZRANB3 / Fold change vs veh, ZRANB3 / RFU, CUL4A / Fold change vs veh, CUL4A / RFU, CCNY / Fold change vs veh, CCNY / RFU, UFL1 / Fold change vs veh, UFL1 / RFU, COG3 / Fold change vs veh, COG3 / RFU, DIAPH2 / Fold change vs veh, DIAPH2 / RFU, SKA2 / Fold change vs veh, SKA2 / RFU, AFF3 / Fold change vs veh, AFF3 / RFU, LMF1 / Fold change vs veh, LMF1 / RFU, IPO11 / Fold change vs veh, IPO11 / RFU, DFFB / Fold change vs veh, DFFB / RFU, FOXP1 / Fold change vs veh, FOXP1 / RFU, CARD8 / Fold change vs veh, CARD8 / RFU, STRN3 / Fold change vs veh, STRN3 / RFU, ADK / Fold change vs veh, ADK / RFU, RASSF2 / Fold change vs veh, RASSF2 / RFU, WIPF1 / Fold change vs veh, WIPF1 / RFU, LARP1B / Fold change vs veh, LARP1B / RFU, RASA1 / Fold change vs veh, RASA1 / RFU, RB1 / Fold change vs veh, RB1 / RFU, PPFIA1 / Fold change vs veh, PPFIA1 / RFU, MAT2A / Fold change vs veh, MAT2A / RFU, CCT5 / Fold change vs veh, CCT5 / RFU, WDR92 / Fold change vs veh, WDR92 / RFU, CUX1 / Fold change vs veh, CUX1 / RFU, TTC7A / Fold change vs veh, TTC7A / RFU, TMEM135 / Fold change vs veh, TMEM135 / RFU, DEPTOR / Fold change vs veh, DEPTOR / RFU, CPM / Fold change vs veh, CPM / RFU, DNAJB6 / Fold change vs veh, DNAJB6 / RFU, CACNA2D3 / Fold change vs veh, CACNA2D3 / RFU, DTX4 / Fold change vs veh, DTX4 / RFU, TFCP2 / Fold change vs veh, TFCP2 / RFU, GMCL1 /// GMCL1P1 / Fold change vs veh, GMCL1 /// GMCL1P1 / RFU, AEBP2 / Fold change vs veh, AEBP2 / RFU, SNHG1 /// SNORD22 /// SNORD25 /// SNORD26 /// SNORD27 /// SNORD28 /// SNORD29 /// SNORD31 / Fold change vs veh, SNHG1 /// SNORD22 /// SNORD25 /// SNORD26 /// SNORD27 /// SNORD28 /// SNORD29 /// SNORD31 / Fold change (Aza/veh), C12orf56 (ProbeSet 11735607_a_at) / Fold change (ACY-1035/veh), C12orf56 (ProbeSet 11735607_a_at) / Fold change (Aza/veh), FGFR1OP (ProbeSet 11751329_s_at) / Fold change (ACY-1035/veh), FGFR1OP (ProbeSet 11751329_s_at) / Fold change (Aza/veh), VPS36 (ProbeSet 11739960_a_at) / Fold change (ACY-1035/veh), VPS36 (ProbeSet 11739960_a_at) / RFU SYPL1 (11715823_x_at) / Fold change /veh SYPL1 (11715823_x_at) / RFU IGFBP7 (11715501_s_at) / Fold change /veh IGFBP7 (11715501_s_at) / RFU REEP3 (11722064_at) / Fold change /veh REEP3 (11722064_at) / RFU IGLL1 (11728026_x_at) / Fold change /veh IGLL1 (11728026_x_at): dose or concentration left out as unconfirmed
Conditions: MV-4-11 cells, 48 hours

Nc1ncn([C@@H]2O[C@H](CO)[C@@H](O)[C@H]2O)c(=O)n1 [azacitidine]
RFU TNFAIP8L3 (11732012_x_at): 9.37 RFU
